Reference: the NIST ThermoML archive (doi:10.1021/je049808f)

Experiments:
[1] = 298.15 K, Liquid; for viscosity: 100 kPa; for mass density: 101.33 kPa
[2] = cn = amount concentration of the nth substance listed, in mol/dm3; settings: 100 kPa, Liquid

CCO [ethanol]
[1]
Settings | mass density [kg/m3] | viscosity [mPa·s]
– | 785.2 | 1.082

CO [methanol]
[1]
Settings | mass density [kg/m3] | viscosity [mPa·s]
– | 786.2 | 0.545

[I-].[K+] [potassium iodide] + CO
[2]
Settings | mass density [kg/m3] | viscosity [mPa·s]
298.15 K, c1 = 0.0906 | 800.8 | 0.578
298.15 K, c1 = 0.1458 | 809 | 0.598
298.15 K, c1 = 0.1806 | 814.3 | 0.609
298.15 K, c1 = 0.2451 | 824.3 | 0.628
298.15 K, c1 = 0.3767 | 845.3 | 0.665
298.15 K, c1 = 0.4151 | 851.6 | 0.677
298.15 K, c1 = 0.4787 | 862.2 | 0.695
298.15 K, c1 = 0.5381 | 872.4 | 0.724
298.15 K, c1 = 0.614 | 885.4 | 0.737
298.15 K, c1 = 0.6541 | 892.7 | 0.75
303.15 K, c1 = 0.0901 | 796.1 | 0.539
303.15 K, c1 = 0.1449 | 804.3 | 0.558
303.15 K, c1 = 0.1795 | 809.6 | 0.568
303.15 K, c1 = 0.2437 | 819.5 | 0.587
303.15 K, c1 = 0.3745 | 840.6 | 0.62
303.15 K, c1 = 0.4127 | 846.8 | 0.631
303.15 K, c1 = 0.476 | 857.5 | 0.653
303.15 K, c1 = 0.535 | 867.6 | 0.664
303.15 K, c1 = 0.6106 | 880.5 | 0.685
303.15 K, c1 = 0.6505 | 887.8 | 0.697
308.15 K, c1 = 0.0895 | 791.3 | 0.504
308.15 K, c1 = 0.1441 | 799.6 | 0.522
308.15 K, c1 = 0.1785 | 804.9 | 0.532
308.15 K, c1 = 0.2423 | 814.8 | 0.548
308.15 K, c1 = 0.3724 | 835.8 | 0.58
308.15 K, c1 = 0.4104 | 842 | 0.59
308.15 K, c1 = 0.4733 | 852.7 | 0.615
308.15 K, c1 = 0.5321 | 862.8 | 0.623
308.15 K, c1 = 0.6073 | 875.7 | 0.639
308.15 K, c1 = 0.647 | 883 | 0.651
313.15 K, c1 = 0.1432 | 794.8 | 0.489
313.15 K, c1 = 0.1774 | 800.1 | 0.498
313.15 K, c1 = 0.2409 | 810 | 0.513
313.15 K, c1 = 0.3704 | 831.1 | 0.543
313.15 K, c1 = 0.4081 | 837.2 | 0.552
313.15 K, c1 = 0.4707 | 847.8 | 0.572
313.15 K, c1 = 0.5291 | 858 | 0.58
313.15 K, c1 = 0.604 | 870.8 | 0.598
313.15 K, c1 = 0.6435 | 878.1 | 0.608
